These results are taken from patent US20080161315A1, “INDOLES” (priority 2006, published 2008).

Counter-ions that a name gives are not always drawn.

This test deals with T1, human V1a receptor (Homo sapiens, UniProt P37288).
T1 construct: expressed in transfected cells; host or cells: HEK293 cells, transiently transfected; membrane preparation
T1 sequence (P37288 whole entry): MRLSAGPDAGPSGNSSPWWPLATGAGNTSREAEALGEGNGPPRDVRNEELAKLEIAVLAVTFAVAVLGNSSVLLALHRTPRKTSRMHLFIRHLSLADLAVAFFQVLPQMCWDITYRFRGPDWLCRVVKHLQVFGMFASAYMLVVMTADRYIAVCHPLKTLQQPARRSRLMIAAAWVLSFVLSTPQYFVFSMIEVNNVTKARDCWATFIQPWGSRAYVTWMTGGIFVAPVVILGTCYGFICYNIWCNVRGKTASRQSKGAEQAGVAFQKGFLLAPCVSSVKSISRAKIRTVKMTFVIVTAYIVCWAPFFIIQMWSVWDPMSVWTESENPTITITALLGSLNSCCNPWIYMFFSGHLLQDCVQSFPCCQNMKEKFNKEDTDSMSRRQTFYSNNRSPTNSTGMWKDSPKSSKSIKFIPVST
In words: human V1a receptor binding studies (3H-Vasopressin, SPA beads). To be noted: membranes of HEK293 cells transiently transfected with human V1a receptor, Ki calculated by Cheng-Prussoff equation, read-out: pKi hV1a (converted). The procedure: The human V1a receptor was cloned by RT-PCR from total human liver RNA. The coding sequence was subcloned in an expression vector after sequencing to confirm the identity of the amplified sequence. […] Cell membranes were prepared from HEK293 cells transiently transfected with the expression vector and grown in 20 liter fermenters with the following protocol.
50 g of cells were resuspended in 30 ml freshly prepared ice cold Lysis buffer (50 mM HEPES, 1 mM EDTA, 10 mM MgCl2 adjusted to pH=7.4+complete cocktail of protease inhibitor (Roche Diagnostics)); homogenized with Polytron for 1 min; and sonicated on ice for 2×2 minutes at 80% intensity (Vibracell sonicator). The preparation was centrifuged 20 min at 500 g at 4° C., the pellet was discarded and the supernatant centrifuged 1 hour at 43,000 g at 4° C. (19,000 rpm). The pellet was resuspended in 12.5 ml Lysis buffer+12.5 ml Sucrose 20% and homogenized using a Polytron for 1-2 min. The protein concentration was determined by the Bradford method and aliquots were stored at −80° C. until use. For binding studies 60 mg Yttrium silicate SPA beads (Amersham) were mixed with an aliquot of membrane in binding buffer (50 mM Tris, 120 mM NaCl, 5 mM KCl, 2 mM CaCl2, 10 mM MgCl2) for 15 minutes with mixing. 50 ul of bead/membrane mixture was then added to each well of a 96 well plate, followed by 50 ul of 4 nM 3H-Vasopressin (American Radiolabeled Chemicals). For total binding measurement 100 ul of binding buffer were added to the respective wells, for non-specific binding 100 ul of 8.4 mM cold vasopressin and for compound testing 100 ul of a serial dilution of each compound in 2% DMSO. The plate was incubated Ih at room temperature, centrifuged 1 min at 1000 g and counted on a Packard Top-Count. Non-specific binding counts were subtracted from each well, and data was normalized to the maximum specific binding set at 100%. To calculate an IC 50 the curve was fitted using a non-linear regression model (XLfit), and the Ki was calculated using the Cheng-Prussoff equation.
As for `CN(C)CCn1cc(C(=O)N2CCC(N3C(=O)Cc4ccccc43)CC2)c2ccc(Cl)cc21` [Example 15, 1-{1-[6-Chloro-1-(2-dimethylamino-ethyl)-1H-indole-3-carbonyl]-piperidin-4-yl}-1,3-dihydro-indol-2-one], the Ki was 2.09 nM.

As to `CNC(=O)Cn1cc(C(=O)N2CCC(n3c(=O)oc4ccccc43)CC2)c2ccc(Cl)cc21` [Example 10, 2-{6-Chloro-3-[4-(2-oxo-benzooxazol-3-yl)-piperidine-1-carbonyl]-indol-1-yl}-N-methyl-acetamide], the Ki is 6.76 nM.

With `CNCCn1cc(C(=O)N2CCC(N3C(=O)Cc4ccccc43)CC2)c2ccc(Cl)cc21` [Example 14, 1-{1-[6-Chloro-1-(2-methylamino-ethyl)-1H-indole-3-carbonyl]-piperidin-4-yl}-1,3-dihydro-indol-2-one hydrochloride], the Ki was 6.61 nM.

Regarding `CN(C)C(=O)Cn1cc(C(=O)N2CCC(N3C(=O)Cc4ccccc43)CC2)c2ccc(Cl)cc21` [Example 4, 2-(6-Chloro-3-{[4-(2-oxo-2,3-dihydro-1H-indol-1-yl)piperidin-1-yl]carbonyl}-1H-indol-1-yl)-N,N-dimethylacetamide], the Ki was 1.29 nM.

For `CS(=O)(=O)NCCn1cc(C(=O)N2CCC(N3C(=O)Cc4ccccc43)CC2)c2ccc(Cl)cc21` [Example 6, N-[2-(6-Chloro-3-{[4-(2-oxo-2,3-dihydro-1H-indol-1-yl)piperidin-1-yl]carbonyl}-1H-indol-1-yl)ethyl]methanesulfonamide], the Ki is 3.16 nM.

In the case of `O=C(c1cn(Cc2cc(F)cc(F)c2)c2cc(Cl)ccc12)N1CCC(N2C(=O)Cc3ccccc32)CC1` [Example 2, 1-{1-[6-Chloro-1-(3,5-difluoro-benzyl)-1H-indole-3-carbonyl]-piperidin-4-yl}-1,3-dihydro-indol-2-one], the Ki was 2.57 nM.

For `CCN(CC)C(=O)Cn1cc(C(=O)N2CCC(N3C(=O)Cc4ccccc43)CC2)c2ccc(Cl)cc21` [Example 5, 2-{6-Chloro-3-[4-(2-oxo-2,3-dihydro-indol-1-yl)-piperidine-1-carbonyl]-indol-1-yl}-N,N-diethyl-acetamide], the Ki was 11.7 nM.

With `CNC(=O)Cn1cc(C(=O)N2CCC(N3C(=O)Cc4ccccc43)CC2)c2ccc(Cl)cc21` [Example 3, 2-{6-Chloro-3-[4-(2-oxo-2,3-dihydro-indol-1-yl)-piperidine-1-carbonyl]-indol-1-yl}-N-methyl-acetamide], the Ki is 1.82 nM.

In the case of `CC(=O)NCCn1cc(C(=O)N2CCC(N3C(=O)Cc4ccccc43)CC2)c2ccc(Cl)cc21` [Example 7, N-[2-(6-Chloro-3-{[4-(2-oxo-2,3-dihydro-1H-indol-1-yl)piperidin-1-yl]carbonyl}-1H-indol-1-yl)ethyl]acetamide], the Ki is 11.7 nM.

Consider `CN(C)CCn1cc(C(=O)N2CCC(n3nnc4ccccc43)CC2)c2ccc(Cl)cc21` [Example 17, (4-Benzotriazol-1-yl-piperidin-1-yl)-[6-chloro-1-(2-dimethylamino-ethyl)-1H-indol-3-yl]-methanone], for which the Ki was 19.5 nM.

With `CN1CCn2c(c(C(=O)N3CCC(n4nnc5ccccc54)CC3)c3ccc(Cl)cc32)C1` [Example 18, (4-Benzotriazol-1-yl-piperidin-1-yl)-(7-chloro-2-methyl-1,2,3,4-tetrahydro-pyrazino[1,2-a]indol-10-yl)-methanone], the Ki was 20.9 nM.

For the compound `O=C(c1c[nH]c2cc(Cl)ccc12)N1CCC(N2C(=O)Cc3ccccc32)CC1` [Example 1, 1-[1-(6-Chloro-1H-indole-3-carbonyl)-piperidin-4-yl]-1,3-dihydro-indol-2-one], the Ki was 8.91 nM.

As to `CN(C)C(=O)Cn1cc(C(=O)N2CCC(n3nnc4ccccc43)CC2)c2ccc(Cl)cc21` [Example 13, 2-(3-{[4-(1H-Benzotriazol-1-yl)piperidin-1-yl]carbonyl}-6-chloro-1H-indol-1-yl)-N,N-dimethylacetamide], the Ki was 14.1 nM.

Take `Cc1[nH]c2cc(Cl)ccc2c1C(=O)N1CCC(N2C(=O)Cc3ccccc32)CC1` [Example 8, 1-[1-(6-Chloro-2-methyl-1H-indole-3-carbonyl)-piperidin-4-yl]-1,3-dihydro-indol-2-one]: the Ki was 12.6 nM.
